The values that follow come from patent publication US20200171001A1, “COMBINATION THERAPY WITH 2,3-DIHYDRO-ISOINDOLE-1-ONE COMPOUNDS AND METHODS FOR TREATING PATIENTS WITH VARIOUS MUTATIONS” (Aptose Biosciences Inc., priority 2018, published 2020).

Assay [1] deals with malignant bone marrow or peripheral blood cells from AML patients. Description: Ex vivo drug sensitivity (MTS cell viability, IC50 and AUC) on freshly isolated primary AML patient samples, association with somatic mutations. Format: cell-based, human. To be noted: for Effectiveness (AUC of drug sensitivity) against ASXL1 mutant cells compared with wild type: ASXL1 mutant vs wild type AML cells, FIG. 5; for Effectiveness (AUC of drug sensitivity) against SRSF2 mutant cells compared with wild type: SRSF2 mutant vs wild type AML cells; for Sensitivity of patient samples with FLT3-ITD mutations as compared to wild-type: AML patient samples with FLT3-ITD mutations vs WT, n=118 patients; for Sensitivity of patient samples with FLT3-ITD mutations as compared to wild-type / Sensitivity of patient samples with IDH1 mutants relative to WT: FIG. 1, FIG. 2; for Sensitivity of patient samples with IDH1 mutants relative to WT: AML patient samples with IDH1 mutations vs WT. The method, then: For Genomics Analysis examples 2-4 below, studies were performed according to published procedures [Tyner, J. W., Tognon, C. E., Bottomly, D. et al. Functional genomic landscape of acute myeloid leukaemia. Nature 562, 526-531 (2018) doi:10.1038/s41586-018-0623-z; Kurtz, S. E., Eide, C. […] PNAS Sep. 5, 2017 114 (36) 7554-7563], which are incorporated by reference in their entirety herein.
All patient samples were analyzed for clinical characteristics and drug sensitivity. AML, CLL, ALL and MDS/MPN and other patient samples were analyzed with respect to expanded, disease-specific panels of clinical, prognostic, genetic, cytogenetic, and surface antigen characteristics obtained from patient electronic medical records. Genetic characterization of AML samples included results of a clinical deep-sequencing panel of genes commonly mutated in hematologic malignancies (GeneTrails panel from Knight Diagnostic Laboratories, OHSU; Foundation Medicine reports from UT Southwestern).
Compound 7 and/or venetoclax were prepared in a well in a seven-point concentration series. Similar plates were prepared with the 48 indicated pairwise inhibitor combinations in seven-point fixed molar concentration series identical to those used for single agents. The final concentration of DMSO was ≤0.1% in all wells, and all sets of single-agent and combination destination plates were stored at −20° C. and thawed immediately before use. Primary mononuclear cells were plated across single-agent and combination inhibitor panels within 24 h of collection. Cells were seeded into assay plates at 10,000 cells per well in RPMI 1640 media supplemented with FBS (10%), L-glutamine, penicillin/streptomycin, and β-mercaptoethanol (10^−4 M). After 3 d of culture at 37° C. in 5% CO2, MTS reagent (CellTiter96 AQueous One; Promega) was added, optical density was measured at 490 nm, and raw absorbance values were adjusted to a reference blank value and then used to determine cell viability (normalized to untreated control wells).
Normalized viability values at each dose of a seven-point dilution series for Compound 7, venetoclax or combinations of the two compounds were analyzed for each of numerous primary leukemia samples. Dose concentrations were log 10-transformed, and a probit regression curve was fit to each seven-point drug sensitivity profile by using maximum-likelihood estimation for the intercept and slope. This parametric model was chosen over a polynomial because the probit's monotonic shape reflects a dose-response curve typically seen in samples incubated with cytotoxic or inhibitory agents. Normalized viability values greater than 100%, indicating higher cell viability than the average viability across control wells on a given plate, were truncated to 100% to produce a percentage response variable amenable to probit modeling. From the fitted probit curve for each sample/drug pairing, the IC50 was defined as the lowest concentration to achieve 50% predicted viability and the AUC was computed by integration of the curve height across the tested dose range. If the predicted cell viability (i.e., probit curve height) was ≤50% at the lowest tested dose or >50% across the entire dose range, the IC50 was designated as the lowest dose or highest dose, respectively. For sensitivity profiles with 100% normalized viability at all seven dose points, the IC50 and AUC were designated as the highest tested dose and the maximum possible AUC, respectively. For sensitivity profiles with 0% viability at all seven dose points, the IC50 and AUC were designated as the lowest tested dose and a value (0.5) just below the minimum probit-derived AUC, respectively.
Genomics analysis of Compound 7 was performed by testing the association of somatic mutations and expression data with Compound 7 response on freshly harvested malignant bone marrow or peripheral blood cells from AML patients. […]

Assay [2] concerns B-cell malignant cell lines (e.g. AML cell lines). Description: Potency against B-cell malignant cell lines compared with conventional IDH1 therapeutic agents. Type of assay: cell-based.

For the compound `CC1(COc2ccc3c(c2)ncn3-c2ccc3cccc(N4CCC(N)CC4)c3n2)COC1` [crenolanib, reference compound], in assay [1] (72-hour culture), the “Effectiveness (AUC of drug sensitivity) against ASXL1 mutant cells compared with wild type” value was “appear resistant”. In addition, in assay [1] (72-hour culture, FIG. 4), the “Effectiveness (AUC of drug sensitivity) against SRSF2 mutant cells compared with wild type” value was “appear resistant”.

Regarding `Cc1cnc(-c2ccc(-c3ccc(NC(=O)Nc4c(F)cc(F)cc4F)cc3F)c3c2C(=O)NC3)[nH]1` [Compound 7, 1-{3-fluoro-4-[7-(5-methyl-1H-imidazol-2-yl)-1-oxo-2,3-dihydro-1H-isoindol-4-yl]-phenyl}-3-(2,4,6-trifluorophenyl)urea], in assay [1], the “Sensitivity of patient samples with FLT3-ITD mutations as compared to wild-type” value is on record as “highly sensitive” and the “Sensitivity of patient samples with IDH1 mutants relative to WT” value is reported as “highly sensitive”. Also, in assay [1] (listed as compound 7), the “Sensitivity of patient samples with FLT3-ITD mutations as compared to wild-type” value is “more sensitive” and the “Sensitivity of patient samples with IDH1 mutants relative to WT” value was “greater sensitivity”. Besides, the “Sensitivity of patient samples with IDH1 R132 residue mutants relative to WT” value in assay [1] (AML patient samples with IDH1 R132 residue mutants (n=6), on average, vs WT) is “significantly greater sensitivity”. The “Effectiveness (AUC of drug sensitivity) against ASXL1 mutant cells compared with wild type” value in assay [1] (72-hour culture) was “just as effective”. Also, the “Effectiveness (AUC of drug sensitivity) in AML cells with IDH mutations compared to IDH wild type” value in assay [1] (IDH mutant vs IDH wild type AML cells, 72-hour culture, FIG. 4) is “substantially more effective”. The “Effectiveness (AUC of drug sensitivity) against SRSF2 mutant cells compared with wild type” value in assay [1] (72-hour culture, FIG. 4) is listed as “just as effective”. The “Effectiveness (AUC of drug sensitivity) in AML cells with TP53 mutations” value in assay [1] (TP53 mutant vs TP53 wild type AML cells, 72-hour culture, FIG. 3) is on record as “retains effectiveness”. For the same compound, in assay [1] (all patient samples with IDH1 mutations, FIG. 2), the “IC50 towards killing cells in AML patient bone marrow samples with IDH1 mutations” value was “particular low”. Besides, in assay [2], the “Potency relative to conventional IDH1 therapeutic agents (e.g., Tibsovo)” value is “more potent”.
